The values that follow are results of earlier work, collected in PMC13050480, “Preclinical Development of GT-14, a Novel Inhibitor of Gαi2 Protein: Comprehensive Evaluation of Physicochemical, Metabolic Characteristics and Tissue Distribution” (The AAPS journal, 2025).

One series deals with albumin. Set-up: method as in PMID 27106175. The note with it: cited from earlier work.
The test system of a further series is α1-acid glycoprotein. Further details: method as in PMID 27106175. The note with it: cited from earlier work.
For series [1] the following is noted: cited from earlier work.

In the case of `C[C@]12CC[C@H](O)CC1=CC[C@@H]1[C@@H]2CC[C@]2(C)C(c3cccnc3)=CC[C@@H]12` [Abiraterone], the protein-bound to albumin in the series on albumin is 95.6–99.9%. In the series on α1-acid glycoprotein, the “protein-bound to α1-acid glycoprotein” value was 89.4–95.6%. For the same compound, in series [1], the “volume of distribution (Vd)” value is listed as ~ 5630 L.

The term half-life denotes the time needed for the level to fall by half in the phase considered. For the compound `CC(O)(CS(=O)(=O)c1ccc(F)cc1)C(=O)Nc1ccc(C#N)c(C(F)(F)F)c1` (stereo not shown) [Bicalutamide], in series [1], the half-life was 25 to 30 h; the oral bioavailability entry is “high oral bioavailability”; the “tissue distribution of [3H]-Bicalutamide” value was “preferential accumulation in the prostate, pituitary gland, and seminal vesicles, with limited brain penetration”.

For the compound `CNC(=O)c1ccc(N2C(=S)N(c3ccc(C#N)c(C(F)(F)F)c3)C(=O)C2(C)C)cc1F` [Enzalutamide], the “apparent oral volume of distribution (Vd/F)” value in series [1] was “around 110 L”.
